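Cultured in 96-well plates, cells were exposed to test compound for 48 hours across five concentrations. TGI is the concentration that stops growth completely.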
Tests used:
Assay in all cases: NCI-60 cell line screen, 48 h
OVCAR-8 ovarian = tested on: OVCAR-8 ovarian
NCI-H522 lung = tested on: NCI-H522 lung
MALME-3M melanoma = tested on: MALME-3M melanoma
SK-MEL-2 melanoma = tested on: SK-MEL-2 melanoma
A549 NSCLC = tested on: A549 NSCLC
SNB-75 CNS = tested on: SNB-75 CNS
SNB-19 CNS = tested on: SNB-19 CNS
ACHN renal = tested on: ACHN renal
SK-OV-3 ovarian = tested on: SK-OV-3 ovarian
SK-MEL-5 melanoma = tested on: SK-MEL-5 melanoma
UACC-257 melanoma = tested on: UACC-257 melanoma
MDA-MB-435 = tested on: MDA-MB-435
COLO 205 colon = tested on: COLO 205 colon
UACC-62 melanoma = tested on: UACC-62 melanoma
HT29 colon = tested on: HT29 colon
SN12C renal = tested on: SN12C renal
EKVX NSCLC = tested on: EKVX NSCLC
SF-268 CNS = tested on: SF-268 CNS
OVCAR-5 ovarian = tested on: OVCAR-5 ovarian
HL-60(TB) leukemia = tested on: HL-60(TB) leukemia
OVCAR-4 ovarian = tested on: OVCAR-4 ovarian
LOX IMVI melanoma = tested on: LOX IMVI melanoma
HCT-116 colon = tested on: HCT-116 colon
BT-549 breast = tested on: BT-549 breast
RXF 393 renal = tested on: RXF 393 renal
HS 578T breast = tested on: HS 578T breast
HCT-15 colon = tested on: HCT-15 colon
RPMI-8226 leukemia = tested on: RPMI-8226 leukemia
786-0 renal = tested on: 786-0 renal
CAKI-1 renal = tested on: CAKI-1 renal
MDA-MB-231 breast = tested on: MDA-MB-231 breast
NCI-H226 lung = tested on: NCI-H226 lung
MCF7 breast = tested on: MCF7 breast
U251 CNS = tested on: U251 CNS
T-47D breast = tested on: T-47D breast
A498 renal = tested on: A498 renal
M14 melanoma = tested on: M14 melanoma
NCI/ADR-RES ovarian = tested on: NCI/ADR-RES ovarian
K-562 leukemia = tested on: K-562 leukemia
KM12 colon = tested on: KM12 colon
PC-3 prostate = tested on: PC-3 prostate
CCRF-CEM leukemia = tested on: CCRF-CEM leukemia
SR leukemia = tested on: SR leukemia
UO-31 renal = tested on: UO-31 renal
NCI-H23 lung = tested on: NCI-H23 lung
SF-295 CNS = tested on: SF-295 CNS
SF-539 CNS = tested on: SF-539 CNS
IGROV1 ovarian = tested on: IGROV1 ovarian
TK-10 renal = tested on: TK-10 renal
NCI-H460 lung = tested on: NCI-H460 lung
SW-620 colon = tested on: SW-620 colon
HCC-2998 colon = tested on: HCC-2998 colon
HOP-92 NSCLC = tested on: HOP-92 NSCLC
HOP-62 NSCLC = tested on: HOP-62 NSCLC
OVCAR-3 ovarian = tested on: OVCAR-3 ovarian
MOLT-4 leukemia = tested on: MOLT-4 leukemia
MDA-N = tested on: MDA-N
SK-MEL-28 melanoma = tested on: SK-MEL-28 melanoma
DU-145 prostate = tested on: DU-145 prostate

Cc1cccc(N=Nc2ccc(O)c(CN(C)C)c2)c1
TGI (OVCAR-8 ovarian): 85.1 µM
TGI (NCI-H522 lung): 24.1 µM
TGI (MALME-3M melanoma): 21.8 µM
TGI (SK-MEL-2 melanoma): 47.6 µM
TGI (A549 NSCLC): > 100 µM
TGI (SNB-75 CNS): 94.5 µM
TGI (SNB-19 CNS): > 100 µM
TGI (ACHN renal): 34.9 µM
TGI (SK-OV-3 ovarian): > 100 µM
TGI (SK-MEL-5 melanoma): 27.5 µM
TGI (UACC-257 melanoma): 36 µM
TGI (MDA-MB-435): 35.8 µM
TGI (COLO 205 colon): 28.6 µM
TGI (UACC-62 melanoma): 30.4 µM
TGI (HT29 colon): 53.8 µM
TGI (SN12C renal): > 100 µM
TGI (EKVX NSCLC): 58.1 µM
TGI (SF-268 CNS): > 100 µM
TGI (OVCAR-5 ovarian): 98.4 µM
TGI (HL-60(TB) leukemia): 54.2 µM
TGI (OVCAR-4 ovarian): > 100 µM
TGI (LOX IMVI melanoma): 26.9 µM
TGI (HCT-116 colon): > 100 µM
TGI (BT-549 breast): > 100 µM
TGI (RXF 393 renal): 73.7 µM
TGI (HS 578T breast): 44.9 µM
TGI (HCT-15 colon): 80.6 µM
TGI (RPMI-8226 leukemia): > 100 µM
TGI (786-0 renal): 92.5 µM
TGI (CAKI-1 renal): > 100 µM
TGI (MDA-MB-231 breast): > 100 µM
TGI (NCI-H226 lung): > 100 µM
TGI (MCF7 breast): > 100 µM
TGI (U251 CNS): > 100 µM
TGI (T-47D breast): 57.5 µM
TGI (A498 renal): 38.8 µM
TGI (M14 melanoma): 62.2 µM
TGI (NCI/ADR-RES ovarian): 72.6 µM
TGI (K-562 leukemia): 16.1 µM
TGI (KM12 colon): 34.4 µM
TGI (PC-3 prostate): > 100 µM
TGI (CCRF-CEM leukemia): 4.69 µM
TGI (SR leukemia): > 100 µM
TGI (UO-31 renal): 51.5 µM
TGI (NCI-H23 lung): > 100 µM
TGI (SF-295 CNS): 86.5 µM
TGI (SF-539 CNS): 41.6 µM
TGI (IGROV1 ovarian): 65.9 µM
TGI (TK-10 renal): 72.4 µM
TGI (NCI-H460 lung): 34.8 µM
TGI (SW-620 colon): 66.8 µM
TGI (HCC-2998 colon): 30.3 µM
TGI (HOP-92 NSCLC): > 100 µM
TGI (HOP-62 NSCLC): 28.9 µM
TGI (OVCAR-3 ovarian): 52.7 µM
TGI (MOLT-4 leukemia): 91.6 µM
TGI (MDA-N): 75.2 µM
TGI (SK-MEL-28 melanoma): 36.9 µM

CC#CC#C/C=C1/C=CC2(CCCCO2)O1 (configuration not stated)
TGI (OVCAR-8 ovarian): > 100 µM
TGI (NCI-H522 lung): > 100 µM
TGI (MALME-3M melanoma): > 100 µM
TGI (SK-MEL-2 melanoma): > 100 µM
TGI (A549 NSCLC): > 100 µM
TGI (SNB-75 CNS): > 100 µM
TGI (SNB-19 CNS): > 100 µM
TGI (SK-OV-3 ovarian): > 100 µM
TGI (SK-MEL-5 melanoma): > 100 µM
TGI (UACC-257 melanoma): > 100 µM
TGI (MDA-MB-435): > 100 µM
TGI (COLO 205 colon): > 100 µM
TGI (UACC-62 melanoma): > 100 µM
TGI (HT29 colon): > 100 µM
TGI (SN12C renal): > 100 µM
TGI (EKVX NSCLC): > 100 µM
TGI (SF-268 CNS): > 100 µM
TGI (OVCAR-5 ovarian): > 100 µM
TGI (HL-60(TB) leukemia): 47.4 µM
TGI (OVCAR-4 ovarian): > 100 µM
TGI (LOX IMVI melanoma): > 100 µM
TGI (HCT-116 colon): > 100 µM
TGI (BT-549 breast): > 100 µM
TGI (HS 578T breast): > 100 µM
TGI (HCT-15 colon): > 100 µM
TGI (786-0 renal): > 100 µM
TGI (CAKI-1 renal): > 100 µM
TGI (DU-145 prostate): > 100 µM
TGI (MDA-MB-231 breast): > 100 µM
TGI (NCI-H226 lung): > 100 µM
TGI (MCF7 breast): > 100 µM
TGI (U251 CNS): > 100 µM
TGI (T-47D breast): > 100 µM
TGI (A498 renal): > 100 µM
TGI (M14 melanoma): > 100 µM
TGI (NCI/ADR-RES ovarian): > 100 µM
TGI (K-562 leukemia): > 100 µM
TGI (KM12 colon): > 100 µM
TGI (PC-3 prostate): > 100 µM
TGI (CCRF-CEM leukemia): 53.9 µM
TGI (SR leukemia): > 100 µM
TGI (UO-31 renal): > 100 µM
TGI (NCI-H23 lung): > 100 µM
TGI (SF-295 CNS): > 100 µM
TGI (SF-539 CNS): > 100 µM
TGI (IGROV1 ovarian): > 100 µM
TGI (TK-10 renal): > 100 µM
TGI (NCI-H460 lung): > 100 µM
TGI (SW-620 colon): > 100 µM
TGI (HCC-2998 colon): > 100 µM
TGI (HOP-92 NSCLC): > 100 µM
TGI (MOLT-4 leukemia): > 100 µM
TGI (MDA-N): > 100 µM
TGI (SK-MEL-28 melanoma): > 100 µM
